The target in one test is Cannabinoid receptor 2 (Homo sapiens, UniProt P34972). In words: Displacement of [3H]CP55940 from human cannabinoid CB2 receptor expressed in HEK293 EBNA cells after 90 mins by liquid scintillation counting. Format: cell-based. On the technique in general: In a radioligand displacement assay an active substance lowers the binding of a labelled ligand.
A further test addresses Cannabinoid receptor 1 (Homo sapiens, UniProt P21554). In words: Displacement of [3H]CP55940 from human cannabinoid CB1 receptor expressed in HEK293 EBNA cells after 90 mins by liquid scintillation counting. Format: cell-based.
In test [1] the test system is PC-3. In words: Antitumor activity against human PC3 cells xenografted in BALB/c OlaHsd-Foxn1nu mouse assessed as tumor growth inhibition at 2 mg/kg, ip qd for 15 days. Format: functional. To be noted: PC-3, ip, 360 h, route intraperitoneal, read-out: TGI. (Xenograft models place foreign cells or tissue in a host animal.)
The subject of test [2] is LNCaP. The experiment in a line: Antitumor activity against human LNCAP cells xenografted in BALB/c OlaHsd-Foxn1nu mouse assessed as tumor growth inhibition at 2 mg/kg, ip qd for 15 days. Format: functional, organism-based. Set-up: dose 2 mg/kg.
Test [3] has as its system LNCaP. In words: Antiproliferative activity against human LNCAP cells after 48 hrs by MTT assay in presence of PPARgamma antagonist GW9662. Format: functional, cell-based.
Test [4] relates to LNCaP. The experiment in a line: Antiproliferative activity against human LNCAP cells after 48 hrs by MTT assay in presence of antioxidant N-acetylcysteine. The format is functional, cell-based. In general terms: Tetrazolium assays rely on reduction of a dye to a coloured formazan, in cell work by metabolically active cells.
Test [5] relates to LNCaP. The experiment in a line: Antiproliferative activity against human LNCAP cells after 48 hrs by MTT assay in presence of CB2 antagonist SR144528. Format: functional, cell-based.
For test [6], the system named is LNCaP. The experiment in a line: Antiproliferative activity against human LNCAP cells after 48 hrs by MTT assay in presence of CB1 antagonist SR141716. Format: functional, cell-based.
Test [7] has as its system PC-3. In words: Induction of apoptosis in human PC3 cells assessed as early apoptotic cells at IC50 after 24 hrs using annexin V-FITC/PI staining by flow cytometric analysis (reference value: 1.51%). The format is functional.
The test system of test [8] is PC-3. In words: Induction of apoptosis in human PC3 cells assessed as late apoptotic cells at IC50 after 24 hrs using annexin V-FITC/PI staining by flow cytometric analysis (reference value: 4.45%). Format: functional.
Test [9] relates to PC-3. The experiment in a line: Induction of apoptosis in human PC3 cells assessed as viable cells at IC50 after 24 hrs using annexin V-FITC/PI staining by flow cytometric analysis (reference value: 9.96%). The format is functional.
Test [10] has as its system LNCaP. In words: Induction of apoptosis in human LNCAP cells assessed as early apoptotic cells at IC50 after 24 hrs using annexin V-FITC/PI staining by flow cytometric analysis (reference value: 1.24%). Format: functional.
For test [11], the system named is LNCaP. In words: Induction of apoptosis in human LNCAP cells assessed as late apoptotic cells at IC50 after 24 hrs using annexin V-FITC/PI staining by flow cytometric analysis (reference value: 2.96%). The format is functional.
The test system of test [12] is LNCaP. The experiment in a line: Induction of apoptosis in human LNCAP cells assessed as viable cells at IC50 after 24 hrs using annexin V-FITC/PI staining by flow cytometric analysis (reference value: 12.33%). Format: functional.
The test system of test [13] is PC-3. In words: Cell cycle arrest in human PC3 cells assessed as accumulation at G2 phase at IC50 after 24 hrs by flow cytometry analysis (reference value: 22.90%). The format is functional.
Test [14] relates to PC-3. In words: Cell cycle arrest in human PC3 cells assessed as accumulation at S phase at IC50 after 24 hrs by flow cytometry analysis (reference value: 6.97%). Format: functional.
In test [15] the test system is PC-3. In words: Cell cycle arrest in human PC3 cells assessed as accumulation at G1/G0 phase at IC50 after 24 hrs by flow cytometry analysis (reference value: 70%). The format is functional.
Test [16] relates to PC-3. In words: Cell cycle arrest in human PC3 cells assessed as accumulation at sub-G0 phase at IC50 after 24 hrs by flow cytometry analysis (reference value: 0.12%). Format: functional.
Test [17] concerns LNCaP. The experiment in a line: Cell cycle arrest in human LNCAP cells assessed as accumulation at G2 phase at IC50 after 24 hrs by flow cytometry analysis (reference value: 5.62%). The format is functional.
For test [18], the system named is LNCaP. The experiment in a line: Cell cycle arrest in human LNCAP cells assessed as accumulation at S phase at IC50 after 24 hrs by flow cytometry analysis (reference value: 3.90%). Format: functional.
The test system of test [19] is LNCaP. The experiment in a line: Cell cycle arrest in human LNCAP cells assessed as accumulation at G1/G0 phase at IC50 after 24 hrs by flow cytometry analysis (reference value: 91.30%). The format is functional.
Test [20] deals with LNCaP. In words: Cell cycle arrest in human LNCAP cells assessed as accumulation at sub-G0 phase at IC50 after 24 hrs by flow cytometry analysis (reference value: 0.18%). Format: functional.
For test [21], the system named is PC-3. The experiment in a line: Antiproliferative activity against human PC3 cells after 48 hrs by MTT assay. Format: functional, cell-based. The following applies: PC-3, 48 h.
The test system of test [22] is LNCaP. In words: Antiproliferative activity against human LNCAP cells after 48 hrs by MTT assay. The format is functional, cell-based.
In a further test the test system is HepG2. In words: Antiproliferative activity against human HepG2 cells after 48 hrs by MTT assay. Format: functional, cell-based. To be noted: HepG2, 48 h.

The term pKi denotes the negative decadic logarithm of the Ki, by convention in mol/L. The term pIC50 denotes −log10 of the IC50, conventionally taken in molar units. Read a high pIC50 as a low IC50.

pIC50, pKi: −log10 of the molar value. Calls of active or inactive are those of the source. The rule behind the calls is not given here.

Chain of Cannabinoid receptor 1 (P21554 whole entry): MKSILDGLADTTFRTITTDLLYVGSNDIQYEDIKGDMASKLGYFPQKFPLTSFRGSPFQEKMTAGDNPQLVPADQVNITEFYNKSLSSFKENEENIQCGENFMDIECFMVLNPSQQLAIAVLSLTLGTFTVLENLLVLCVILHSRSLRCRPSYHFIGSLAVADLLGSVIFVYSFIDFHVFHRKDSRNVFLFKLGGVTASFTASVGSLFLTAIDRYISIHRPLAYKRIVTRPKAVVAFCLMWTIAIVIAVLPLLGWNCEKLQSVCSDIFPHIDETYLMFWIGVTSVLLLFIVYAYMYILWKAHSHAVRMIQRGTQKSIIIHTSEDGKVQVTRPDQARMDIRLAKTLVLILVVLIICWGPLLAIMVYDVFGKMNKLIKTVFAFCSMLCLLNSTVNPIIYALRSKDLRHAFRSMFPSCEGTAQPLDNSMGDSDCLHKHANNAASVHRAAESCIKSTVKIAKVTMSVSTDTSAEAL
Chain of Cannabinoid receptor 2 (P34972 whole entry): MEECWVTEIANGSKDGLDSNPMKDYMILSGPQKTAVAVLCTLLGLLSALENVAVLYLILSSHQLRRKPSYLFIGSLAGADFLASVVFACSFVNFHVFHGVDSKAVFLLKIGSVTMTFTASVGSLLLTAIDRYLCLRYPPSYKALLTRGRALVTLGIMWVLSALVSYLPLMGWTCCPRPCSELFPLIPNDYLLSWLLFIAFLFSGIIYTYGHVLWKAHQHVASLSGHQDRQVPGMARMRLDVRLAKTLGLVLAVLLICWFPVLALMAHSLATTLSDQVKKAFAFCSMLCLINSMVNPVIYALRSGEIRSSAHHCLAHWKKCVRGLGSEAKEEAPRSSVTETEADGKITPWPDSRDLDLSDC

As for `CCCCCCC(C)(C)C1=CC(=O)C2=C(OC(C)(C)c3cn(C)nc32)C1=O`, the pKi was 6.17 at Cannabinoid receptor 2 and 4.85 at Cannabinoid receptor 1.

With `CCCCCCC(C)(C)C1=CC(=O)C2=C(OC(C)(C)c3cn(CC)nc32)C1=O`, the values for the negative logarithm of the Ki (pKi) on Cannabinoid receptor 2 and at Cannabinoid receptor 1 were 5.44 and 5.07, respectively.

For the compound `CCCCCCC(C)(C)C1=CC(=O)C2=C(OC(C)(C)c3c[nH]nc32)C1=O`, the inhibition in vivo at 2 mg/kg in the test with PC-3 [1] is 40%. In the test on LNCaP [2], the TGI entry was “Active”. The result in the test with LNCaP [3], in the test on LNCaP [4] and with LNCaP [6] was inactive. The result in the test on LNCaP [5] was Active. Further, the Activity came to 3.98% in the test on PC-3 [7]; 6.91% with PC-3 [8]; 5.97% in the test on PC-3 [9]; 5.86% in the test on LNCaP [10]; 9.59% in the test on LNCaP [11]; 12.52% in the test with LNCaP [12]. The Activity turned out to be 30.24% in the test with PC-3 [13]; 10.09% in the test with PC-3 [14]; 58.68% with PC-3 [15]; 2.3% in the test with PC-3 [16]; 9.24% with LNCaP [17]; 7.09% in the test with LNCaP [18]. In addition, the Activity in the test on LNCaP [19] is 74.68%; with LNCaP [20], 8.9%. The pIC50 in the test on PC-3 [21] was 4.82; with LNCaP [22], 4.82; with HepG2, 4.52. Moreover, the negative-log Ki (pKi) at Cannabinoid receptor 2 is 6.87; at Cannabinoid receptor 1, 6.49.
